Values joined by “and” are separate entries in the source; they are usually repeats but may differ in a detail not shown here. Identical values can stand only once. Like-named read-outs stand apart in the source and are kept apart here.
How the values were obtained:
[1] = tested on: Eimeria tenella sporozoites; assay: In vitro MTT assay of Eimeria tenella sporozoite viability
E. acervulina [2] = format: in vivo, Cobb×Cobb 500 male broiler chicks; conditions: feces d35
E. tenella [3] = format: in vivo, Cobb×Cobb 500 male broiler chicks; conditions: feces d35
E. maxima [4] = format: in vivo, Cobb×Cobb 500 male broiler chicks; conditions: feces d35
E. maxima [5] = format: in vivo, Cobb×Cobb 500 male broiler chicks; conditions: scored d35, scale 0-4
E. acervulina [6] = format: in vivo, Cobb×Cobb 500 male broiler chicks; conditions: scored d35, scale 0-4
E. tenella [7] = format: in vivo, Cobb×Cobb 500 male broiler chicks; conditions: scored d35, scale 0-4
[8] = tested on: mixed Eimeria challenge (E. acervulina, E. maxima, E. tenella); design: species or system Cobb×Cobb 500 male broiler chicks; conditions: in vivo
C. perfringens = format: in vivo, Cobb×Cobb 500 male broiler chicks
[9] = Treatments In (kept in basal diet d28-35)
[10] = Treatments Out (removed from basal diet d28-35)

Row | Compound | additional decrease of sporozoite viability ([1]; 100 ppm compared to 50 ppm) [%] | sporozoite viability (in words) ([1]; MTT assay, 50 and 100 ppm, salinomycin 60 ppm positive control) | Average oocysts per gram (OPG) in feces E. acervulina (E. acervulina [2]; Treatments In) [oocysts per gram] | Average oocysts per gram (OPG) in feces E. acervulina (E. acervulina [2]; Treatments Out) [oocysts per gram] | Average oocysts per gram (OPG) in feces E. tenella (E. tenella [3]; Treatments In) [oocysts per gram] | Average oocysts per gram (OPG) in feces E. tenella (E. tenella [3]; Treatments Out) [oocysts per gram] | Average oocysts per gram (OPG) in feces E. maxima (E. maxima [4]; Treatments In) [oocysts per gram] | Average oocysts per gram (OPG) in feces E. maxima (E. maxima [4]; Treatments Out) [oocysts per gram] | Average lesion score E. maxima (E. maxima [5]; [9]) | Average lesion score E. maxima (E. maxima [5]; [10]) | Average lesion score E. acervulina (E. acervulina [6]; [9]) | Average lesion score E. acervulina (E. acervulina [6]; [10]) | Average lesion score E. tenella (E. tenella [7]; [9]) | Average lesion score E. tenella (E. tenella [7]; [10]) | Average lesion score Overall [8] | mortality due to necrotic enteritis (in words) (C. perfringens; C. perfringens challenged birds) | FCR (in words) (C. perfringens; C. perfringens challenged broilers) | FCR (0-21 days) (C. perfringens; challenged with C. perfringens d19, 20, 21, FCR adjusted for mortality)
1 | O=C(OC[C@H]1O[C@@H](OC(=O)c2cc(O)c(O)c(OC(=O)c3cc(O)c(O)c(O)c3)c2)[C@H](OC(=O)c2cc(O)c(O)c(OC(=O)c3cc(O)c(O)c(O)c3)c2)[C@@H](OC(=O)c2cc(O)c(O)c(OC(=O)c3cc(O)c(O)c(O)c3)c2)[C@@H]1OC(=O)c1cc(O)c(O)c(OC(=O)c2cc(O)c(O)c(O)c2)c1)c1cc(O)c(O)c(OC(=O)c2cc(O)c(O)c(O)c2)c1 [tannic acid] | 5 | reductions were greater | – | – | – | – | – | – | – | – | – | – | – | – | – | – | – | –
2 | CC[C@@H](C(=O)[C@@H](C)[C@@H](O)[C@H](C)[C@@H]1O[C@@H]([C@@H](CC)C(=O)O)CC[C@@H]1C)[C@H]1O[C@]2(C=C[C@@H](O)[C@]3(CC[C@@](C)([C@H]4CC[C@](O)(CC)[C@H](C)O4)O3)O2)[C@H](C)C[C@@H]1C [BioCox ®, salinomycin] | – | – | 734 | 19510 | 1167 | 1668 | 67 | 0 | 0.60 | 0.78 | 0.95 | 1.50 | 1.05 | 1.00 | 0.87 and 1.09 | – | – | –
3 | N=C(N/N=C/c1ccc(Cl)cc1)N/N=C/c1ccc(Cl)cc1 [Robenz ®, Robenidine] | – | – | 1301 | 4869 | 1034 | 3468 | 0 | 600 | 0.30 | 0.68 | 0.45 | 1.38 | 2.30 | 1.00 | 1.02 | – | – | –
4 | bacitracin methylene disalicylate [BMD] | – | – | – | – | – | – | – | – | – | – | – | – | – | – | – | reduced | improved FCR | 1.904

From patent publication US20170106027A1, “COMPOSITIONS AND METHODS OF IMPROVING PERFORMANCE AND INTESTINAL HEALTH OF POULTRY” (Kemin Industries, Inc., priority 2015, published 2017)
